# Assay results taken from patent publication US20080063601A1, “Compositions and methods relating to polycystic kidney disease” (priority 2004, published 2008).
# Where two headings read alike, the source gives them in different places.
# Key:
# [1] = tested on: Pkd1^−/− murine model of polycystic kidney disease; assay type: in vivo, mice; details: for Alive Pkd1^−/− (birth): 0.07 mg/kg/day i.p. to pregnant mice; for Alive Pkd1^−/− (birth) / Ave. kidney wet weight Pkd1^−/−: E10.5 until birth; for Ave. kidney wet weight Pkd1^−/−: 0.07 mg/kg/day i.p.
# Experimental: As per approved IACUC animal protocol, Pkd1^+/−/Pkd1^+/− mice were mated and pregnant mice were divided into control (DMSO) or experimental (triptolide) groups. A total volume of 100 μl of PBS with no more than 5% DMSO or DMSO/0.07 mg/kg/day triptolide was injected i.p. with a 28 G ½ insulin syringe. Mice were weighed and injected starting at E10.5 until birth. All pups were examined for length and developmental staging such as whisker formation. Kidneys were harvested, weighed, and fixed in 4% paraformaldehyde before histological preparation.
# Kidneys were prepared by sagittal cross-sectioning and hematoxylin and eosin staining. All kidneys were photographed under the same magnification (4×) and cystic burden was computed using Image J analysis software (NIH). The area of cysts within the total area of the kidney (pixels) was calculated as a final percentage of cystic burden in the kidney. Immunohistochemical analysis of active caspase-3 was completed as per manufacturer's protocol.
# Following successful Pkd1^+/− Pkd1^+/− matings, 0.07 mg/kg/day of triptolide or DMSO control was injected i.p. into pregnant mice until they gave birth. All pups were assessed for viability, length, developmental staging, and wet kidney weight. A total of 59 pups from DMSO treated females and 100 pups from triptolide treated females were examined for multiple parameters, such as genotypic distribution, developmental stage at time of birth, and average kidney weights (Table 1). […] Approximately 20% of all Pkd1^−/− mice were born alive from each treatment group. However, severe edematous abnormalities were obvious upon necropsy.
# [2] = Dose finding / toxicity in pregnant C57B1/6 mice; assay type: in vivo
# Experimental: Triptolide has been previously studied in rodent models of tumor regression (Tengchaisri, et al., 1998, Cancer Lett 133, 169-175; Yang, et al., 2003, Mol Cancer Ther 2, 65-72), but it had not yet been tested in a system utilizing pregnant females. To first establish a potential therapeutic versus lethal concentration of drug delivery, pregnant C57B1/6 mice were treated with incremental concentrations of triptolide between 0.01-0.15 mg/kg/day i.p. injections. Toxicity was assessed as determined by resorption of all embryos or the preponderance of a large percentage of stillborns. With reference to these criteria, triptolide toxicity was determined to be most prominent at concentrations of 0.1 mg/kg/day or greater. […] Another experimental parameter involved the timing of the start of triptolide injections, since polycystin-2 has been implicated in left-right axis formation in the developing embryo at approximately E7.75 (McGrath, et al., 2003, Cell 114, 61-73; Pennekamp, et al., 2002, Curr Biol 12, 938-943). Applicants therefore chose E10.5 as the start of triptolide injections, in order to allow for a normal polycystin-2 mediated patterning event and still leave sufficient time to act on cyst formation during kidney organogenesis.
# [3] = tested on: HeLa cells; experiment: [3H]-triptolide saturation (specific) binding in HeLa cells; details: 0-100 nM [3H]-triptolide 1 h, non-specific binding with 2 μM cold triptolide, read-out: [3H]-triptolide binding affinity (KD), specific binding
# Experimental: Based upon the data above, Applicant next sought to determine if triptolide binding was saturable and if more than one protein (or binding site) was being targeted. Determination of the [^3H]-triptolide binding affinity (KD) and the binding capacity per cell (Bmax) were calculated using a saturation plot. HeLa cells were cultured to 90% confluency and subsequently treated with 0-100 nM of [^3H]-triptolide for one hour. Non-specific binding was defined using 2 μM cold triptolide as competitor. Bmax was calculated to be 99±19 fmol triptolide bound/[…] of triptolide binding sites.
# Saturation binding assays were accomplished in HeLa cells adhered on 6-well plates in DMEM+10% FBS. All samples were at least 90% confluent at time of addition of triptolide. Non-specific binding of [^3H]-triptolide was assessed by the pre-incubation of 2 μM (non-labeled) triptolide for one hour. Following cold competition (or DMSO) 5, 10, 20, 50, or 100 nM of [^3H]-triptolide was added into the cultures for an additional one hour, and then cells were lysed and counted for binding activity.
# [4] = tested on: Pkd2^+/− cells; experiment: Viability of Pkd2+/− kidney epithelial cells; assay type: cell-based, murine; details: Pkd2+/− cells (one copy each of Pkd1 and Pkd2), 100 nM
# [5] = tested on: HeLa cells; experiment: [3H]-triptolide labeling followed by cellular fractionation; assay type: binding
# Excerpt: To address first the nature of triptolide binding within the cell, Applicant determined this interaction was reversible as [^3H]-triptolide labeling was out competed by subsequent addition of excess unlabeled triptolide (FIG. 4A). […] Although 25% of the total cellular counts (i.e., representing bound triptolide) were found in the cytosolic fraction, it is uncertain whether this is specific binding or simply that free triptolide had dissociated from its binding protein due to experimental manipulation during fractionation. Since the data thus far had only shown binding within whole cells, Applicant next determined if this triptolide binding protein could be further characterized and/or enriched by its association with chromatographic reagents. HeLa cells were once again labeled with [^3H]-triptolide and total cell lysates were then passed over the anion exchange resin DEAE. […] Importantly, Applicant also observed that [^3H]-triptolide would only bind to intact cells in culture but would not bind to any component of a total cellular lysate as assessed by interaction with the DEAE resin. […]
# For cellular fractionation studies, cells were allowed to swell on ice and lysed by passage through a syringe in a hypotonic lysis buffer (10 mM Tris-HCl+complete protease inhibitors). […] Gel slices were measured out in equal increments and the molecular weight range of each was calculated. […]
# [6] = Pkd1^−/− pups, 0.07 mg/kg/day i.p. during gestation
compound,measurement,setting,value
CC(C)[C@]12O[C@H]1[C@@H]1O[C@]13[C@]1(O[C@H]1C[C@H]1C4=C(CC[C@@]13C)C(=O)OC4)[C@@H]2O [triptolide],Alive Pkd1^−/− (birth),[1],Approximately 20%
same,Alive Pkd1^−/− (birth),[1]; listed as Triptolide,4 (22%)
same,Ave. kidney wet weight Pkd1^−/−,[1]; mean ± SE,24.6 ± 0.8 mg
same,Ave. kidney wet weight Pkd1^−/−,"[1]; mean ± SE, listed as Triptolide",21.8 ± 2.8 mg
same,active caspase-3 immunoreactivity in kidney sections,"[1]; Pkd1^−/− kidneys, 0.07 mg/kg/day i.p. during gestation",did not show any significant activation of the caspase pathway
same,diameter of cyst lumens on average,[1]; [6],smaller
same,maximum cyst burden,[1]; [6],25%
same,"cystic burden (cyst area as percentage of total kidney area), average","[1]; Pkd1^−/− pups, 0.07 mg/kg/day i.p. during gestation, mean ± SE",15±2.1%
same,wet kidney weight or overall size of Pkd1^+/+ or Pkd1^+/− mice versus DMSO,"[1]; mouse, in vivo",no significant difference
same,adverse effects,[2]; 0.07 mg/kg/day i.p.,no discernable adverse effects
same,MTD,"[2]; female, mouse, in vivo, ip, read-out: maximum tolerated dose",0.07 mg/kg/day
same,dose at which toxicity (resorption of all embryos or large percentage of stillborns) was most prominent,"[2]; i.p., 0.01-0.15 mg/kg/day tested",≥ 0.1 mg/kg/day
same,Kd,[3],15.5 ± 0.8 nM
same,cell viability,[4],rapid cell death within 24 hours
same,cellular fraction that binds [3H]-triptolide,"[5]; S-100, P-100, insoluble fractions",predominantly to the membrane fraction (P-100)
same,total cellular counts (bound triptolide) found in the cytosolic fraction,[5]; S-100 fraction,25%
